{"source": "patent US7261906B2", "about": "“Anti-cancer therapy agent of arsenic hexoxide (As4O6) of a natural chemical substance and its pharmaceutical composition” (priority 1998, dated 2007)", "key": {"[1]": {"assay": "Subacute toxicity, oral administration once a day for 4 weeks", "format": "in vivo, Rats (Sprague Dawley strain)", "conditions": "for ALT / ALB / AST / BUN / CHOL / CREAT / Ca / GLU / TB / TG / TP: female rats", "method": "The subacute toxicity of oral administration of HD-2 was evaluated according to toxicity assessment criteria described in Article 96-8 of Notice on rood and Drug Safety (Apr. 16, 1994). Rats (Sprague Dawley . strain) were used for experiments, as was the case for acute toxicity experiments. […]\nFollowing items were observed during the period of study. • 1) General symptoms: General symptoms, such as anorchism, salivation, diarrhea, vomiting, polyuria, anuria, and fecal change and the severity of these symptoms were evaluated once a day during the study period. • 2) Food consumption: Twice a week, the amount of consumed food and the remaining amount were checked per cage. • 3) Water consumption: Twice a week, the amount of consumed water and the remaining amount were checked per cage. • 4) Weight: Weights were measured twice a week until the end of the study. • 5) Urinalysis: Urine samples were collected during study period from 5 randomly selected rats per study subgroup and appearance, volume, and colors were recorded. Using urinalysis kits (N-multistix of Amersham), pH, gravity, leukocyte, protein, ketone body, urobilinogen, glucose and blood urea nitrogen were measured. • 6) Eye examination: Ophthalmoscopic examination of 5 randomly selected rats per study subgroup was performed to evaluate the external appearance, cornea, and:fundus of the eye. • 7) Hematological and biochemical analysis: Routine blood test was done to measure red blood cell count, white blood cell count, hemoglobin concentration, number of monocytes and lymphocytes, and blood coagulation time. Biochemical analysis of serum was done to measure the activity of […], aspartate transaminase, alkaline phosphate, and albumin. • 8) Size and weight of organs: For every animal studied, weight and size of major organs were measured relative to body weight. Measured organs included liver, kidney, spleen, heart, adrenal gland, brain, thyroid gland, ovary, and testis. • 9) Pathological examination: Organs were fixed in formalin after measurement of weight and size and fixed tissues were cut into […] slices using microtome (AO Rotate Microtome) and stained with hematoxylin and eosin for microscopic study."}, "[2]": {"system": "B16-BL6 melanoma", "assay": "Neovascularization and tumor size after intradermal melanoma injection", "format": "in vivo, C57BL/6 mice", "conditions": "one milligram orally three days after tumor injection", "method": "The in vivo mechanism of anticancer effect of HD-2 was studied in mice. After suspending 4×10^5 cells of B16-BL6 melanoma in 50% PBS, they were injected intradermally into 2 sites on the back of 6- to 7-week old C57BL/6 mice. Three days after the tumor injection, one milligram of HD-2 was given orally and size of inoculated melanoma and number of blood vessels at and around tumor sites were measured. Control group was treated with oral administration of PBS."}}, "note": "Marks after values point to notes of the source that are not given here.", "data": [{"compound": "O1[As]2O[As]3O[As]1O[As](O2)O3", "note": "[HD-2, arsenic hexoxide (As4O6)]", "values": [{"measurement": "ALT", "setting": "[1]; High 100 mg/kg/day oral", "result": 29.67, "unit": "μ/l"}, {"measurement": "ALB", "setting": "[1]; High 3.0 g/kg/day oral", "result": 3.33, "unit": "g/dL"}, {"measurement": "AST", "setting": "[1]; High 3.0 g/kg/day oral", "result": "77.87* μ/l"}, {"measurement": "BUN", "setting": "[1]; High 3.0 g/kg/day oral", "result": 13.13, "unit": "mg/dL"}, {"measurement": "CHOL", "setting": "[1]; High 3.0 g/kg/day oral", "result": 44.33, "unit": "mg/dL"}, {"measurement": "CREAT", "setting": "[1]; High 3.0 g/kg/day oral", "result": 0.47, "unit": "mg/dL"}, {"measurement": "Ca", "setting": "[1]; High 3.0 g/kg/day oral", "result": 8.73, "unit": "mg/dL"}, {"measurement": "GLU", "setting": "[1]; High 3.0 g/kg/day oral", "result": 63.03, "unit": "mg/dL"}, {"measurement": "TB", "setting": "[1]; High 3.0 g/kg/day oral", "result": 0.18, "unit": "mg/dL"}, {"measurement": "TG", "setting": "[1]; High 3.0 g/kg/day oral", "result": 62.33, "unit": "mg/dL"}, {"measurement": "TP", "setting": "[1]; High 3.0 g/kg/day oral", "result": 5.93, "unit": "g/dL"}, {"measurement": "ALB", "setting": "[1]; Low 0.03 g/kg/day oral", "result": 3.60, "unit": "g/dL"}, {"measurement": "ALT", "setting": "[1]; Low 0.03 g/kg/day oral", "result": 27.10, "unit": "μ/l"}, {"measurement": "AST", "setting": "[1]; Low 0.03 g/kg/day oral", "result": "70.10* μ/l"}, {"measurement": "BUN", "setting": "[1]; Low 0.03 g/kg/day oral", "result": 11.43, "unit": "mg/dL"}, {"measurement": "CHOL", "setting": "[1]; Low 0.03 g/kg/day oral", "result": 42.33, "unit": "mg/dL"}, {"measurement": "CREAT", "setting": "[1]; Low 0.03 g/kg/day oral", "result": 0.40, "unit": "mg/dL"}, {"measurement": "Ca", "setting": "[1]; Low 0.03 g/kg/day oral", "result": 8.77, "unit": "mg/dL"}, {"measurement": "GLU", "setting": "[1]; Low 0.03 g/kg/day oral", "result": 67.70, "unit": "mg/dL"}, {"measurement": "TB", "setting": "[1]; Low 0.03 g/kg/day oral", "result": 0.14, "unit": "mg/dL"}, {"measurement": "TG", "setting": "[1]; Low 0.03 g/kg/day oral", "result": 50.00, "unit": "mg/dL"}, {"measurement": "TP", "setting": "[1]; Low 0.03 g/kg/day oral", "result": 6.27, "unit": "g/dL"}, {"measurement": "ALB", "setting": "[1]; Medium 0.3 g/kg/day oral", "result": 3.70, "unit": "g/dL"}, {"measurement": "ALT", "setting": "[1]; Medium 0.3 g/kg/day oral", "result": 27.00, "unit": "μ/l"}, {"measurement": "AST", "setting": "[1]; Medium 0.3 g/kg/day oral", "result": 87.53, "unit": "μ/l"}, {"measurement": "BUN", "setting": "[1]; Medium 0.3 g/kg/day oral", "result": 13.18, "unit": "mg/dL"}, {"measurement": "CHOL", "setting": "[1]; Medium 0.3 g/kg/day oral", "result": 40.50, "unit": "mg/dL"}, {"measurement": "CREAT", "setting": "[1]; Medium 0.3 g/kg/day oral", "result": 0.53, "unit": "mg/dL"}, {"measurement": "Ca", "setting": "[1]; Medium 0.3 g/kg/day oral", "result": 8.95, "unit": "mg/dL"}, {"measurement": "GLU", "setting": "[1]; Medium 0.3 g/kg/day oral", "result": 70.00, "unit": "mg/dL"}, {"measurement": "TB", "setting": "[1]; Medium 0.3 g/kg/day oral", "result": 0.16, "unit": "mg/dL"}, {"measurement": "TG", "setting": "[1]; Medium 0.3 g/kg/day oral", "result": 56.25, "unit": "mg/dL"}, {"measurement": "TP", "setting": "[1]; Medium 0.3 g/kg/day oral", "result": 6.53, "unit": "g/dL"}, {"measurement": "kidney pathology: hemosiderin in and atrophy of proximal tubular epithelium", "setting": "[1]; high-dose group (100 mg/kg body weight), 4 weeks", "result": "observed to a slight degree"}, {"measurement": "kidney pathology", "setting": "[1]; medium-dose group, 4 weeks", "result": "no such pathology was observed"}, {"measurement": "Hematological and biochemical study vs control groups", "setting": "[1]; oral, once a day for 4 weeks", "result": "did not reveal any significant difference"}, {"measurement": "clinical symptoms incl. changes in weight and consumption of food and water", "setting": "[1]; oral, once a day for 4 weeks", "result": "no specific clinical symptom"}, {"measurement": "urinalysis and eye examination", "setting": "[1]; oral, once a day for 4 weeks", "result": "any significant abnormality was not observed"}, {"measurement": "fatal cases", "setting": "[1]; oral, once a day for 4 weeks, 1, 10, 100 mg per kg body weight", "result": "fatal cases were not observed"}, {"measurement": "size of solid tumor mass", "setting": "[2]", "result": "decreased significantly"}, {"measurement": "number of new blood vessels at and around tumor sites", "setting": "[2]; FIG. 5", "result": "tended to decrease"}]}]}
